The values that follow come from patent US11396497B2, “Proteasome inhibitors” (New Mexico Tech University Research Park Corporation, priority 2018, dated 2022).

The structures appear in SMILES notation. Like-named read-outs stand apart in the source and are kept apart here.

In data set [1] the target is T1, chymotrypsin-like activity of the 26S proteasome (Homo sapiens, UniProt P28074).
T1 construct: endogenous in cells; host or cells: Jurkat (ATCC TIB-152, E6-1 clone) cell lysate
T1 sequence (P28074 60-263): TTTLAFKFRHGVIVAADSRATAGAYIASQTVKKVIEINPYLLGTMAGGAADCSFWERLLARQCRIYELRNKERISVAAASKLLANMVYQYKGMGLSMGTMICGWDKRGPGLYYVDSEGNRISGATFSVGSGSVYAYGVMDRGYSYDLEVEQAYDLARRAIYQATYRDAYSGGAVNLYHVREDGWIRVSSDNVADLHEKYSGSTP
The experiment in a line: Proteasome assay, chymotrypsin-like (ChT-L) activity, Suc-LLVY-AMC, Jurkat cell lysate. The note with it: ± S.D. Type of data set: biochemical. As for the experimental part: (§1) The lysate was stored at −80° C. until the sample was used for the proteasome assay.
(§2) The compounds were diluted with lysis buffer; 10 μL of the compound-containing solution was added to the test wells at ten times the final concentration. […] The results are reported as the average of at least 3 technical replicates of IC50 values for proteasome inhibition.

In data set [2] the target is T2, yeast proteasome yβ1 subunit (Saccharomyces cerevisiae, UniProt P25043+P38624).
T2 construct: measured using 8 μg/mL of purified yCP or iCP
Description: Subunit selectivity, purified yeast proteasome yβ1. It counts as biochemical. As to conditions: 8 μg/mL purified yCP; ± SD; read-out: yβ1 IC50. On the procedure: as §2
(§3) Values and standard deviations were calculated from an assay performed in biological triplicate.

In data set [3] the target is T3, yeast proteasome yβ2 subunit (Saccharomyces cerevisiae, UniProt P25043+P25451).
T3 construct: measured using 8 μg/mL of purified yCP or iCP
The experiment in a line: Subunit selectivity, purified yeast proteasome yβ2. It counts as biochemical. As to conditions: 8 μg/mL purified yCP; ± SD; read-out: yβ2 IC50. On the procedure:
as §2, §3

Data set [4] addresses T4, yeast proteasome yβ5 subunit (Saccharomyces cerevisiae, UniProt P23724+P30656).
T4 construct: measured using 8 μg/mL of purified yCP or iCP
Description: Subunit selectivity, purified yeast proteasome yβ5. It counts as biochemical. As to conditions: 8 μg/mL purified yCP; ± SD; read-out: yβ5 IC50. On the procedure:
as §2, §3

In data set [5] the target is T5, immunoproteasome iβ5 subunit (Homo sapiens, UniProt P20618+P28062).
T5 construct: purchased Enzo Life Sciences
The experiment in a line: Subunit selectivity, purified immunoproteasome iβ5. It counts as biochemical. As to conditions: 8 μg/mL purified iCP; ± SD; read-out: iβ5 IC50. On the procedure: as §2, §3

The subject of data set [6] is MCF-7 breast cancer cell line. The experiment in a line: Drug deactivation by serum: cytotoxicity towards MCF-7 in FBS, NBS or human serum. Type of data set: cell-based. The note with it: MCF-7 cytotoxicity. On the procedure: The deactivation of compounds was evaluated by testing the toxicity of compounds 8 and 12a in three different types of serums (i.e., fetal bovine serum (FBS), newborn bovine serum (NBS), and human serum). FBS is taken during the development of a calf fetus, so the serum has less protein associated with the innate immune system, and less protein altogether compared to NBS and human serum. […] The structural optimization of compound 12a improved the serum stability of the drug: P3 was changed from isopropyl to CH2OBn, and P4 was changed from OBn to NHBn. The OBn group of P4 was more sensitive to deactivation than NHBn.
The MCF-7 cells were cultured in three different types of serum. Assays were performed in biological triplicate, and the data points are reported with the corresponding standard deviation.

Data set [7] has as its system MCF7 cells. Description: MTT assay cytotoxicity MCF7. For orientation: Tetrazolium dyes change colour on reduction, which living cells bring about.
Description: (§4) The cells were incubated at 37° C. in a humidified atmosphere with 5% CO2.
(§5) 100 μL of cells were added to each well of a 96 well microtiter plate at a concentration of 4×10^4 cells/mL and incubated overnight to allow proper adhesion. (RPMI 8226 cells were plated at 4×10^5 cells/mL). The cells were treated with the panel of test compounds at a series of concentrations, along with vehicle control DMSO and untreated cells as controls. After 48 h incubation, 20 μL of MTT reagent (3-(4,5-dimethylthiazol-2-yl)-2,5-diphenyltetrazolium bromide) in PBS (5 mg/mL) was added to each well of the plates. The plate was incubated for 2 h at 37° C. For adherent cell lines, the media was removed from each well of the plate and the resulting formazan crystals dissolved in 100 μL of DMSO. For RPMI 8226 cells, 200 ul of DMF/SDS mix (50% DMF. 10% w/v SDS pH<4) was used to solubilize the formazan crystals. Optical density (OD) at 490 nm was measured using a microplate reader. Cells treated with 1 μM phenyl arsine oxide (PAO) served as a positive cell-killing control. Technical replicates of these assays were performed in biological quadruplicate, and the three best values were used for analysis in order to eliminate outliers. Data presented are the average IC50 value calculated from at least 3 technical replicates with the corresponding standard deviation.
The test system of data set [8] is RPMI 8226 cells. Description: MTT assay cytotoxicity RPMI 8226.
Description: as §4, §5
Data set [9] concerns MDA-MB-231 cells. Description: MTT assay cytotoxicity MDA-MB-231.
Description: as §4, §5
Data set [10] relates to cancer cells (MCF7, MDA-MB-231, RPMI 8226). The experiment in a line: MTT cytotoxicity, cell line not given.
In data set [11] the target is T6, trypsin-like activity of the 26S proteasome (Homo sapiens, UniProt Q99436).
T6 construct: endogenous in cells; host or cells: Jurkat (ATCC TIB-152, E6-1 clone) cell lysate
T6 sequence (Q99436 44-277): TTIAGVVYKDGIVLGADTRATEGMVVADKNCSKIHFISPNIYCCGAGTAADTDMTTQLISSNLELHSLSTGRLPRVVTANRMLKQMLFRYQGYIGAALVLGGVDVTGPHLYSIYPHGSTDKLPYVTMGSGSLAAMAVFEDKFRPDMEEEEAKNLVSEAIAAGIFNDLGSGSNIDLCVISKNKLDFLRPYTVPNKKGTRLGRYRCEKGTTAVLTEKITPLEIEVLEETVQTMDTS
The experiment in a line: Proteasome assay, trypsin-like (T-L) activity, SUC-RLR-AMC, Jurkat cell lysate. Type of data set: biochemical. As to conditions: ± S.D., read-out: Proteasome Inhibition T-L-like IC50. On the procedure: as §1, §2

The subject of data set [12] is MCF7 cells.
Description: as §4, §5
In data set [13] the test system is MDA-MB-231 cells.
Description: as §4, §5
Data set [14] concerns RPMI 8226 cells.
Description: as §4, §5
Data set [15] relates to cancer cells (MCF7, MDA-MB-231, RPMI 8226).
Description: as §5
The target of data set [16] is T7, β5 subunit of the 26S yeast proteasome (yCP) (Saccharomyces cerevisiae, UniProt P23724+P30656).
T7 construct: measured using 8 μg/mL of purified yCP or iCP
The experiment in a line: Protein-drug co-crystal structure. It counts as binding. As to conditions: X-ray crystallography. On the procedure: The binding mode of compound 11a in the yeast proteasome was examined. The yeast proteasome (yCP) has high homology with mammalian proteasomes but is easier to crystallize. Compound 11a was incubated at a high concentration with active yCP, and the enzyme-inhibitor complex was analyzed using X-ray crystallography.
Compound 11a is positioned in a kinked β-sheet-like conformation that is stabilized by hydrogen bonding with Thr21 and Gly47. The PI is further stabilized by the hydrophobic interaction of P3, whereas P2 and P4 lack any direct interactions within the binding pocket. The PI prevents the regeneration of the Thr1 catalytic site by complexing the water molecule generated by the hydrolysis of the β-lactone. The water molecule is stabilized in the binding pocket by residues Thr1, Ser131, and the hydroxyl group of the hydrolyzed lactone. […] The biological effects of P2 and P4 can be attributed to the pharmacokinetics of the cystargolide scaffold instead of binding to the β5 subunit of the proteasome.

Data set [17] concerns the target T8, ChT-L activity of 26S proteasomes in intact MCF-7 cells (Homo sapiens, UniProt P28074).
T8 construct: endogenous in cells; host or cells: MCF7 cells (treated intact, then lysed)
T8 sequence (P28074 60-263): T1 sequence (P28074 60-263)
Description: Cell infiltration of PIs: proteasome inhibition in intact MCF7 cells. Type of data set: cell-based. The note with it: intact versus lysed MCF-7 cells, 1 h. As for the experimental part:
100 μL MCF7 cells at a concentration of 500,000 cells/mL were added to a 96 well microtiter plate and incubated overnight at 37° C. and 5% CO2 to allow cells to adhere at 100% confluency. The cells were treated and then incubated for at 37° C. and 5% CO2 for 1 hour as a standard time to allow for drug infiltration. […] The plate was rocked on ice for 1 hr and then 90 μL of cell lysate was transferred to a black 96 well microtiter plate. 10 μL of lysis buffer was added to the top of all wells containing treated cells and one set of control wells. 10 μL of 1 mM of compound 8 was added to the second set of control wells as a positive control for proteasome inhibition. The plate was then incubated at 37° C. for 15 minutes to allow for control drug binding. Chymotrypsin-like activity was then measured by adding 10 μL of 100 μM Suc-LLVY-AMC in lysis buffer to each well and then incubating for 1 h at 37° C. […] Standard deviation for cell infiltration was calculated by propagating the error from the two IC50 values.
The difference between proteasome inhibition within intact versus lysed cells was evaluated as a representative measure of PIs ability to infiltrate cells and access intracellular proteasomes. […] Assays were performed in biological triplicate, and the data points are reported with the corresponding standard deviations. […]

What is called IC50 is the concentration at which inhibition is half-maximal. As for `CC[C@H](C)[C@@H]1C(=O)O[C@H]1C(=O)N[C@H](C(=O)N[C@@H](COCc1ccccc1)C(=O)NCc1ccccc1)C(C)C` [Compound 12a], the concentration for half-maximal inhibition (IC50) came out at 0.647 ± 0.021 nM in data set [1] (Table 5, read-out: Proteasome Inhib. ChT-L IC50); 20400 ± 12900 nM in data set [2]; 13600 ± 5490 nM in data set [3]; 8.2 ± 1.4 nM in [4]; 33 ± 13.4 nM in [5]; 93.9 ± 2.94 nM in [7] (Homo sapiens, MCF7, read-out: Cytotoxicity MCF7 IC50). Besides, the half-inhibitory concentration (IC50) is 28.8 ± 1.09 nM in [8] (Homo sapiens, RPMI-8226, read-out: Cytotoxicity RPMI 8226 IC50) and 56.3 ± 3.09 nM in [9] (Homo sapiens, MDA-MB-231, read-out: Cytotoxicity MDA-MB-231 IC50). Moreover, the “fold decrease in activity with NBS or human serum instead of FBS” value in data set [6] is listed as under 10 fold. Also, the “times less cytotoxic than carfilzomib” value in [10] is listed as “about 10 times”.

For the compound `CC[C@H](C)[C@@H]1C(=O)O[C@H]1C(=O)N[C@H](C(=O)N[C@@H](CC(C)C)C(=O)OCc1ccccc1)C(C)C` [Compound 10i, Benzyl((2R,3S)-3-((S)-sec-butyl)-4-oxooxetane-2-carbonyl)-L-valyl-L-leucinate], the concentration for half-maximal inhibition (IC50) in data set [1] (Table 3, P2/P3 analogues, read-out: Proteasome Inhibition ChT-like IC50) was found to be 7.8 ± 1.6 nM; in data set [11] (Table 3, P2/P3 analogues), 1350 ± 172 nM; in data set [12], 351 ± 31 nM; in data set [13] it was 287 ± 136 nM; in data set [14], 156 ± 96 nM. In addition, in data set [15], the “cytotoxicity IC50 for all three cell lines tested (in words)” value is on record as “midrange nanomolar”.

`C=CCOC(=O)[C@@H](NC(=O)[C@@H](NC(=O)[C@@H]1OC(=O)[C@H]1[C@@H](C)CC)C(C)C)C(C)C` [Compound 11a, Allyl((2R,3S)-3-((S)-sec-butyl)-4-oxooxetane-2-carbonyl)-L-valyl-L-valinate]: the half-inhibitory concentration (IC50) is 11.6 ± 2.8 nM in [1] (Table 4, P4 analogues, read-out: Proteasome Inhibition ChT-like IC50); 779 ± 42 nM in [2]; over 10000 nM in data set [3]; 19.5 ± 0.8 nM in data set [4]; 41.2 ± 15.2 nM in data set [5]; 311 ± 82 nM in [7] (read-out: Cytotoxicity MCF7 IC50, Table 4, MTT, 48 h). The IC50 was determined as 94 ± 15 nM in data set [8] (read-out: Cytotoxicity RPMI 8226 IC50, Table 4, MTT, 48 h) and 275 ± 112 nM in [9] (read-out: Cytotoxicity MDA-MB-231 IC50, Table 4, MTT, 48 h). For the same compound, the “binding mode in the crystal structure” value in data set [16] is given as “binds covalently to Thr1Oγ at the active site of subunit β5 of the yCP”.

For the compound `CC(C)[C@H](NC(=O)[C@@H]1OC(=O)[C@H]1C1CC1)C(=O)N[C@H](C(=O)OCc1ccccc1)C(C)C` [Compound 9a, Benzyl ((2R,3S)-3-cyclopropyl-4-oxooxetane-2-carbonyl)-L-valyl-L-valinate], the concentration for half-maximal inhibition (IC50) is 12.2 ± 5.6 nM in [1] (Table 2, P1 analogues, read-out: Proteasome Inhibition ChT-like IC50); 2480 ± 433 nM in data set [11] (Table 2, P1 analogues); over 100000 nM in [7] (Homo sapiens, MCF7, 48 h, read-out: Cytotoxicity MCF7 IC50); 72000 ± 13800 nM in data set [8] (Homo sapiens, RPMI-8226, 48 h, read-out: Cytotoxicity RPMI 8226 IC50); over 100000 nM in data set [9] (Homo sapiens, MDA-MB-231, 48 h, read-out: Cytotoxicity MDA-MB-231 IC50). In addition, the “cellular infiltration / ability to inhibit intracellular proteasomes (in words)” value in [17] is on record as “lowest performance”.
